According to patent US20080269241A1, “BICYCLIC AMINOPROPYL TETRAHYDRO-PYRAZOLO-PYRIDINE MODULATORS OF CATHEPSIN S” (priority 2007, published 2008):
Like-named read-outs stand apart in the source and are kept apart here.

Target: T1, human cathepsin S (CatS) (Homo sapiens, UniProt P25774)
T1 construct: made in house; host or cells: baculovirus system (insect cells)
Assay: Recombinant human cathepsin S (CatS) fluorogenic substrate inhibition assay
Type: biochemical
Procedure: Recombinant human cathepsin S (CatS) was expressed in the baculovirus system and purified in one step with a thiopropyl-sepharose column. […] The assay is run in 150 mM sodium acetate pH 5.0 containing 1.5 mM DTT and 150 mM NaCl. […] Measurements are taken every min for 20 min. The rate is calculated from the slope of the increase in fluorescence and the percent inhibition is calculated from this.

[1] = recombinant human CatS, 10 μM Z-Valine-Valine-Arginine-AMC, pH 5.0, average of results obtained, read-out: CatS IC50

T1 sequence (P25774 115-331): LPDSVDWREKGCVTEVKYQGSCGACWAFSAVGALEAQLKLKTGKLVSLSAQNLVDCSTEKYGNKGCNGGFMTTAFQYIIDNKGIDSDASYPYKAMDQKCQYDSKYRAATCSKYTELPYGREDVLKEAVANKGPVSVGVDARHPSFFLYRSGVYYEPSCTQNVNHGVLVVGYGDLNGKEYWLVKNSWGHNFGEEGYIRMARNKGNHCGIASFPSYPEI

Structure (SMILES) | IC50 [1] | IC50
CC(C)CC(=O)NCc1cc(-c2nn(CC(O)CN3CCC(C(=O)N4CCOCC4)CC3)c3c2CN(S(C)(=O)=O)CC3)ccc1C(F)(F)F (centres unmarked) [Example 260, N-[5-(1-{2-Hydroxy-3-[4-(morpholine-4-carbonyl)-piperidin-1-yl]-propyl}-5-methanesulfonyl-4,5,6,7-tetrahydro-1H-pyrazolo[4,3-c]pyridin-3-yl)-2-trifluoromethyl-benzyl]-3-methyl-butyramide] | 120 nM | 
CC(C)=CC(=O)NCc1cc(-c2nn(CC(O)CN3CCN(c4ncccc4Cl)CC3)c3c2CN(S(C)(=O)=O)CC3)ccc1C(F)(F)F (centres unmarked) [Example 262, 3-Methyl-but-2-enoic acid 5-(1-{3-[4-(3-chloro-pyridin-2-yl)-piperazin-1-yl]-2-hydroxy-propyl}-5-methanesulfonyl-4,5,6,7-tetrahydro-1H-pyrazolo[4,3-c]pyridin-3-yl)-2-trifluoromethyl-benzylamide] | 10 nM | 
CC(C)=CC(=O)NCc1cc(-c2nn(CC(O)CN3CCC(c4ccccn4)CC3)c3c2CN(S(C)(=O)=O)CC3)ccc1C(F)(F)F (centres unmarked) [Example 263, 3-Methyl-but-2-enoic acid 5-{1-[2-hydroxy-3-(3′,4′,5′,6′-tetrahydro-2′H-[2,4′]bipyridinyl-1′-yl)-propyl]-5-methanesulfonyl-4,5,6,7-tetrahydro-1H-pyrazolo[4,3-c]pyridin-3-yl}-2-trifluoromethyl-benzylamide] | 10 nM | 
COc1ccccc1C1CCN(CC(O)Cn2nc(-c3ccc(C(F)(F)F)c(CNC(=O)C=C(C)C)c3)c3c2CCN(S(C)(=O)=O)C3)CC1 (centres unmarked) [Example 264, 3-Methyl-but-2-enoic acid 5-(1-{2-hydroxy-3-[4-(2-methoxy-phenyl)-piperidin-1-yl]-propyl}-5-methanesulfonyl-4,5,6,7-tetrahydro-1H-pyrazolo[4,3-c]pyridin-3-yl)-2-trifluoromethyl-benzylamide] | 10 nM | 
CC(C)=CC(=O)NCc1cc(-c2nn(CC(O)CN3CCN(c4c(Cl)cncc4Cl)CC3)c3c2CN(S(C)(=O)=O)CC3)ccc1C(F)(F)F (centres unmarked) [Example 265, 3-Methyl-but-2-enoic acid 5-(1-{3-[4-(3,5-dichloro-pyridin-4-yl)-piperazin-1-yl]-2-hydroxy-propyl}-5-methanesulfonyl-4,5,6,7-tetrahydro-1H-pyrazolo[4,3-c]pyridin-3-yl)-2-trifluoromethyl-benzylamide] | 10 nM | 
CC(C)=CC(=O)NCc1cc(-c2nn(CC(O)CN3CCC(O)(c4ccccn4)CC3)c3c2CN(S(C)(=O)=O)CC3)ccc1C(F)(F)F (centres unmarked) [Example 266, 3-Methyl-but-2-enoic acid 5-{1-[2-hydroxy-3-(4′-hydroxy-3′,4′,5′,6′-tetrahydro-2′H-[2,4′]bipyridinyl-1′-yl)-propyl]-5-methanesulfonyl-4,5,6,7-tetrahydro-1H-pyrazolo[4,3-c]pyridin-3-yl}-2-trifluoromethyl-benzylamide] | 10 nM | 
CC(C)=CC(=O)NCc1cc(-c2nn(CC(O)CN3CCC(n4cn[nH]c4=O)CC3)c3c2CN(S(C)(=O)=O)CC3)ccc1C(F)(F)F (centres unmarked) [Example 268, 3-Methyl-but-2-enoic acid 5-(1-{2-hydroxy-3-[4-(5-oxo-1,5-dihydro-[1,2,4]triazol-4-yl)-piperidin-1-yl]-propyl}-5-methanesulfonyl-4,5,6,7-tetrahydro-1H-pyrazolo[4,3-c]pyridin-3-yl)-2-trifluoromethyl-benzylamide] | 10 nM | 
CC(C)=CC(=O)NCc1cc(-c2nn(CC(O)CN3CCC(c4nc(=O)[nH][nH]4)CC3)c3c2CN(S(C)(=O)=O)CC3)ccc1C(F)(F)F (centres unmarked) [Example 270, 3-Methyl-but-2-enoic acid 5-(1-{2-hydroxy-3-[4-(5-oxo-2,5-dihydro-1H-[1,2,4]triazol-3-yl)-piperidin-1-yl]-propyl}-5-methanesulfonyl-4,5,6,7-tetrahydro-1H-pyrazolo[4,3-c]pyridin-3-yl)-2-trifluoromethyl-benzylamide] | 10 nM | 
CC(C)=CC(=O)NCc1cc(-c2nn(CC(O)CN3CCC(c4c[nH]c5ncccc45)CC3)c3c2CN(S(C)(=O)=O)CC3)ccc1C(F)(F)F (centres unmarked) [Example 272, 3-Methyl-but-2-enoic acid 5-(1-{2-hydroxy-3-[4-(1H-pyrrolo[2,3-b]pyridin-3-yl)-piperidin-1-yl]-propyl}-5-methanesulfonyl-4,5,6,7-tetrahydro-1H-pyrazolo[4,3-c]pyridin-3-yl)-2-trifluoromethyl-benzylamide] | 20 nM | 
CC(C)=CC(=O)NCc1cc(-c2nn(CC(O)CN3CCC(c4ccccc4)CC3)c3c2CN(S(C)(=O)=O)CC3)ccc1C(F)(F)F (centres unmarked) [Example 274, 3-Methyl-but-2-enoic acid 5-{1-[2-hydroxy-3-(4-phenyl-piperidin-1-yl)-propyl]-5-methanesulfonyl-4,5,6,7-tetrahydro-1H-pyrazolo[4,3-c]pyridin-3-yl}-2-trifluoromethyl-benzylamide] | 10 nM | 
CC(C)=CC(=O)NCc1cc(-c2nn(CC(O)CN3CCC(c4cccc(O)c4)CC3)c3c2CN(S(C)(=O)=O)CC3)ccc1C(F)(F)F (centres unmarked) [Example 275, 3-Methyl-but-2-enoic acid 5-(1-{2-hydroxy-3-[4-(3-hydroxy-phenyl)-piperidin-1-yl]-propyl}-5-methanesulfonyl-4,5,6,7-tetrahydro-1H-pyrazolo[4,3-c]pyridin-3-yl)-2-trifluoromethyl-benzylamide] | 10 nM | 
CS(=O)(=O)N1CCc2c(c(-c3ccc(C(F)(F)F)c(CNC(=O)C4CC4)c3)nn2CC(O)CN2CCC(N3CCCC3=O)CC2)C1 (centres unmarked) [Example 276, Cyclopropanecarboxylic acid 5-(1-{2-hydroxy-3-[4-(2-oxo-pyrrolidin-1-yl)-piperidin-1-yl]-propyl}-5-methanesulfonyl-4,5,6,7-tetrahydro-1H-pyrazolo[4,3-c]pyridin-3-yl)-2-trifluoromethyl-benzylamide] | 90 nM | 
CC(C)CC(=O)NCc1cc(-c2nn(CC(O)CN3CCC(c4nnn[nH]4)CC3)c3c2CN(S(C)(=O)=O)CC3)ccc1C(F)(F)F (centres unmarked) [Example 277, N-[5-(1-{2-Hydroxy-3-[4-(1H-tetrazol-5-yl)-piperidin-1-yl]-propyl}-5-methanesulfonyl-4,5,6,7-tetrahydro-1H-pyrazolo[4,3-c]pyridin-3-yl)-2-trifluoromethyl-benzyl]-3-methyl-butyramide] | 140 nM | 
CC(C)CC(=O)NCc1cc(-c2nn(CC(O)CN3CCC(O)(c4ccc(Br)cc4)CC3)c3c2CN(S(C)(=O)=O)CC3)ccc1C(F)(F)F (centres unmarked) [Example 287, N-[5-(1-{3-[4-(4-Bromo-phenyl)-4-hydroxy-piperidin-1-yl]-2-hydroxy-propyl}-5-methanesulfonyl-4,5,6,7-tetrahydro-1H-pyrazolo[4,3-c]pyridin-3-yl)-2-trifluoromethyl-benzyl]-3-methyl-butyramide] | 60 nM | 

Further lines, results first:

IC50 [1] | IC50 | Structure (SMILES)
860 nM |  | CC(C)CCNCc1cc(-c2nn(CC(O)CN3CCC(N4CCOCC4)CC3)c3c2CN(S(C)(=O)=O)CC3)ccc1C(F)(F)F (centres unmarked) [Example 282, 1-(5-Methanesulfonyl-3-{3-[(3-methyl-butylamino)-methyl]-4-trifluoromethyl-phenyl}-4,5,6,7-tetrahydro-pyrazolo[4,3-c]pyridin-1-yl)-3-(4-morpholin-4-yl-piperidin-1-yl)-propan-2-ol]
60 nM |  | CC(C)CC(=O)NCc1cc(-c2nn(CC(O)CN3CCC(C(=O)N4CCCC4)CC3)c3c2CN(S(C)(=O)=O)CC3)ccc1C(F)(F)F (centres unmarked) [Example 284, N-[5-(1-{2-Hydroxy-3-[4-(pyrrolidine-1-carbonyl)-piperidin-1-yl]-propyl}-5-methanesulfonyl-4,5,6,7-tetrahydro-1H-pyrazolo[4,3-c]pyridin-3-yl)-2-trifluoromethyl-benzyl]-3-methyl-butyramide]
390 nM |  | Cc1noc(C2CCCN(CC(O)Cn3nc(-c4ccc(C(F)(F)F)c(CNC(=O)CC(C)C)c4)c4c3CCN(S(C)(=O)=O)C4)C2)n1 (centres unmarked) [Example 285, N-[5-(1-{2-Hydroxy-3-[3-(3-methyl-[1,2,4]oxadiazol-5-yl)-piperidin-1-yl]-propyl}-5-methanesulfonyl-4,5,6,7-tetrahydro-1H-pyrazolo[4,3-c]pyridin-3-yl)-2-trifluoromethyl-benzyl]-3-methyl-butyramide]
30 nM |  | Cc1noc(C2CCN(CC(O)Cn3nc(-c4ccc(C(F)(F)F)c(CNC(=O)CC(C)C)c4)c4c3CCN(S(C)(=O)=O)C4)CC2)n1 (centres unmarked) [Example 286, N-[5-(1-{2-Hydroxy-3-[4-(3-methyl-[1,2,4]oxadiazol-5-yl)-piperidin-1-yl]-propyl}-5-methanesulfonyl-4,5,6,7-tetrahydro-1H-pyrazolo[4,3-c]pyridin-3-yl)-2-trifluoromethyl-benzyl]-3-methyl-butyramide]
 | 10 nM | CC(C)CC(=O)NCc1cc(-c2nn(CC(O)CN3CCC(c4ccccc4)CC3)c3c2CN(S(C)(=O)=O)CC3)ccc1C(F)(F)F (centres unmarked) [Example 288, N-(5-{1-[2-Hydroxy-3-(4-phenyl-piperidin-1-yl)-propyl]-5-methanesulfonyl-4,5,6,7-tetrahydro-1H-pyrazolo[4,3-c]pyridin-3-yl}-2-trifluoromethyl-benzyl)-3-methyl-butyramide]
20 nM |  | CS(=O)(=O)N1CCc2c(c(-c3ccc(C(F)(F)F)c(CNCc4ccc(F)cc4)c3)nn2CCCN2CCC(C3CCCCC3)CC2)C1 [Example 296, (5-{1-[3-(4-Cyclohexyl-piperidin-1-yl)-propyl]-5-methanesulfonyl-4,5,6,7-tetrahydro-1H-pyrazolo[4,3-c]pyridin-3-yl}-2-trifluoromethyl-benzyl)-(4-fluoro-benzyl)-amine]
